Test results as given in paper PMC8528301 (PLoS ONE, 2021).
Values joined by “and” are separate entries in the source; they are usually repeats but may differ in a detail not shown here. Equal entries are not always repeated. Where two headings read alike, the source gives them in different places.

Experiment: Dasatinib single oral gavage plasma pharmacokinetics (NLME modeling)
Assay type: in vivo, mouse
Parameters: DV (dasatinib plasma concentration): unit: ng/mL
Conditions: for CL/F: both sexes, po, read-out: Cl_pop (apparent oral clearance) (converted); for CL/F / concentration at 0.5 h / concentration at 1 h / concentration at 2 h / concentration at 8 h / concentration at 16 h / concentration at […] / concentration at 4 h / concentration at 24 h: C57BL/6, mouse, plasma, 10 mg/kg; for concentration at 0.5 h / concentration at 1 h / concentration at 2 h / concentration at 8 h / concentration at 16 h / concentration at […] / concentration at 4 h / concentration at 24 h: oral, read-out: DV (dasatinib plasma concentration)
Procedure: Dasatinib was dissolved in 80 mMol/L sodium citrate buffer pH 3.1 for a total dasatinib concentration of 1 mg/mL and a 10 mL/kg gavage volume. Mice were grouped by VD3 status and sex and studied at 8 and 10 weeks of age. […] Saphenous and submandibular bleeds of mice using a single-use Sarstedt Minivette POCT 50 μL K3 EDTA capillary device are humane methods for obtaining small volumes of blood over multiple time points, preferrable to retroorbital bleeds, and were approved for this study that required blood sampling at multiple time points (three) after dasatinib administration. Each mouse was sampled three times on two separate dasatinib dosing occasions. Blood was collected into the Minivette capillary device, dispensed into a microtube and vortexed to mix the anticoagulant. The tubes were then immediately centrifuged to plasma and stored on dry ice for the remainder of the study. At the end of the in vivo procedures, plasma samples were transferred from dry ice and placed at -80°C until analysis.
Total plasma dasatinib concentrations were assessed using a sensitive and specific liquid chromatography, tandem mass spectrometry (LC-MS/MS) assay. Dasatinib stock solutions were prepared in acetonitrile and used to spike matrix calibrators and quality controls. Protein precipitation was performed using a 1:4 ratio of plasma to 15 ng/mL erlotinib HCl (St. Jude Compound Management, S00004053, Inventory ID: SJCH0042996, Purity > 95%) in methanol as an internal standard. A 3μL aliquot of the extracted supernatant was injected onto a Shimadzu LC-20ADXR high performance liquid chromatography system via a LEAP CTC PAL autosampler. The LC separation was performed using a Phenomenex Kinetex 2.6 um EVO C18 (100A, 50 x 2.1 mm) maintained at 50°C with gradient elution at a flow rate of 0.5 mL/min. The binary mobile phase gradient began with a linear increase to 100% B in 4.0 minutes. The column was then rinsed for 2.0 minutes at 100% B and then equilibrated at the initial conditions for two minutes for a total run time of eight minutes.
Analyte and IS were detected with tandem mass spectrometry using a SCIEX API 5500 Q-TRAP in the positive ESI mode with monitoring of the following mass transitions: Dasatinib 488.20 -> 401.00, erlotinib HCl 394.20 -> 250.10.
The experimental bioanalytical runs were all found to be acceptable for the purpose of a singlicate non-GLP, preclinical PK assessment. A linear model (1/X^2 weighting) fit the calibrators across the 1.00 to 500 ng/mL range, with a correlation coefficient (R) of […]. The lower limit of quantification (LLOQ), defined as a peak area signal-to-noise ratio of 5 or greater verses a matric blank with IS, was 1.00 ng/mL.
§ To evaluate the plasma pharmacokinetics (PK) of dasatinib af t er two separate single oral gavage doses of solution, separated by a washout period, in normal C57BL/6 mice […]
vs 10wk) on the plasma PK of oral dasatinib us ing a nonlinear mixed effects (NLME) PK modeling […]
2. 1 In Vivo Pharmacokinetic (PK) Study
The total plasma PK of dasatinib in C57BL/6 mice (The Jackson Laboratory) was assessed after single oral gavages of 10 mg/kg of dasatinib free base equivalents. Dasatinib (St. Jude Compound […]
sodium citrate buffer pH 3.1 for a final dasatinib concentration of 1 mg/mL for a 10 mL/kg gavage volume.
Mice were grouped by Vitamin D dietary sufficiency status and sex, and studied at 8 and 10 weeks of age. Survival saphenous and facial vein bleeding of mice was conducted using IACUC-approved […]
was sampled 3 times on the 2 separate occasions of dasatinib dosing. […] The tubes were then immediately centrifuged to plasma, and stored on dry ice for […]

SMILES: Cc1nc(Nc2ncc(C(=O)Nc3c(C)cccc3Cl)s2)cc(N2CCN(CCO)CC2)n1 [dasatinib]
- DV (dasatinib plasma concentration) (GROUP:VD3 Suf, SEX:M, OCC 2, time 0.25): 101.99 and 116.5
- DV (dasatinib plasma concentration) (GROUP:VD3 Suf, SEX:M, OCC 2, time 0.5): 207.19 and 212.25
- DV (dasatinib plasma concentration) (GROUP:VD3 Suf, SEX:M, OCC 2, time 2): 297.27 and 320.75
- DV (dasatinib plasma concentration) (GROUP:VD3 Suf, SEX:M, OCC 2, time 8): 10.361 and 16.431
- DV (dasatinib plasma concentration) (GROUP:VD3 Suf, SEX:M, OCC 2, time 24): 3.3895 and 3.3706
- CL/F (Base Model, 10 mg/kg oral gavage): 112 mL/min/kg
- CL/F (Final Model): 119 mL/min/kg
- concentration at 0.5 h (female, GROUP:VD3 Def, SEX:F, OCC 1, time 0.5): 149 ng/mL
- concentration at 1 h (female, GROUP:VD3 Def, SEX:F, OCC 1, time 1): 278 ng/mL
- concentration at 2 h (female, GROUP:VD3 Def, SEX:F, OCC 1, time 2): 435 ng/mL
- concentration at 8 h (female, GROUP:VD3 Def, SEX:F, OCC 1, time 8): 25.2 ng/mL
- concentration at 16 h (female, GROUP:VD3 Def, SEX:F, OCC 1, time 16): 4.02 ng/mL
- concentration at […] (female, GROUP:VD3 Def, SEX:F, OCC 2, time 0.125): 49 ng/mL
- concentration at […] (female, GROUP:VD3 Def, SEX:F, OCC 2, time 0.25): 146 ng/mL
- concentration at 0.5 h (female, GROUP:VD3 Def, SEX:F, OCC 2, time 0.5): 188 ng/mL
- concentration at 16 h (female, GROUP:VD3 Def, SEX:F, OCC 2, time 16): 4.35 ng/mL
- concentration at […] (female, GROUP:VD3 Suf, SEX:F, OCC 1, time 0.25): 167 ng/mL
- concentration at 0.5 h (female, GROUP:VD3 Suf, SEX:F, OCC 1, time 0.5): 231 ng/mL
- concentration at 2 h (female, GROUP:VD3 Suf, SEX:F, OCC 1, time 2): 405 ng/mL
- concentration at 4 h (female, GROUP:VD3 Suf, SEX:F, OCC 1, time 4): 54.1 ng/mL
- concentration at 8 h (female, GROUP:VD3 Suf, SEX:F, OCC 1, time 8): 22 ng/mL
- concentration at 16 h (female, GROUP:VD3 Suf, SEX:F, OCC 1, time 16): 2.06 ng/mL
- concentration at 0.5 h (female, GROUP:VD3 Suf, SEX:F, OCC 2, time 0.5): 137 ng/mL
- concentration at 1 h (female, GROUP:VD3 Suf, SEX:F, OCC 2, time 1): > 500 ng/mL
- concentration at 2 h (female, GROUP:VD3 Suf, SEX:F, OCC 2, time 2): 441 ng/mL
- concentration at 4 h (female, GROUP:VD3 Suf, SEX:F, OCC 2, time 4): 64 ng/mL
- concentration at 16 h (female, GROUP:VD3 Suf, SEX:F, OCC 2, time 16): 8.15 ng/mL
- concentration at […] (male, GROUP:VD3 Def, SEX:M, OCC 1, time 0.25): 145 ng/mL
- concentration at 0.5 h (male, GROUP:VD3 Def, SEX:M, OCC 1, time 0.5): 194 ng/mL
- concentration at 2 h (male, GROUP:VD3 Def, SEX:M, OCC 1, time 2): > 500 ng/mL
- concentration at 4 h (male, GROUP:VD3 Def, SEX:M, OCC 1, time 4): 87.8 ng/mL
- concentration at 8 h (male, GROUP:VD3 Def, SEX:M, OCC 1, time 8): 16.2 ng/mL
- concentration at 24 h (male, GROUP:VD3 Def, SEX:M, OCC 1, time 24): 6.39 ng/mL
- concentration at 0.5 h (male, GROUP:VD3 Def, SEX:M, OCC 2, time 0.5): 178 ng/mL
- concentration at 1 h (male, GROUP:VD3 Def, SEX:M, OCC 2, time 1): > 500 ng/mL
- concentration at 2 h (male, GROUP:VD3 Def, SEX:M, OCC 2, time 2): 287 ng/mL
- concentration at 4 h (male, GROUP:VD3 Def, SEX:M, OCC 2, time 4): 83.2 ng/mL
- concentration at 8 h (male, GROUP:VD3 Def, SEX:M, OCC 2, time 8): 15.5 ng/mL
- concentration at 16 h (male, GROUP:VD3 Def, SEX:M, OCC 2, time 16): 11.1 ng/mL
- concentration at […] (male, GROUP:VD3 Suf, SEX:M, OCC 1, time 0.125): 49.4 ng/mL
- concentration at […] (male, GROUP:VD3 Suf, SEX:M, OCC 1, time 0.25): 110 ng/mL
- concentration at 2 h (male, GROUP:VD3 Suf, SEX:M, OCC 1, time 2): 350 ng/mL
- concentration at 4 h (male, GROUP:VD3 Suf, SEX:M, OCC 1, time 4): 147 ng/mL
- concentration at […] (male, GROUP:VD3 Suf, SEX:M, OCC 2, time 0.25): 107 ng/mL
- concentration at 0.5 h (male, GROUP:VD3 Suf, SEX:M, OCC 2, time 0.5): 316 ng/mL
- concentration at 1 h (male, GROUP:VD3 Suf, SEX:M, OCC 2, time 1): > 500 ng/mL
- concentration at 2 h (male, GROUP:VD3 Suf, SEX:M, OCC 2, time 2): 366 ng/mL
- concentration at 8 h (male, GROUP:VD3 Suf, SEX:M, OCC 2, time 8): 20.4 ng/mL
- concentration at 24 h (male, GROUP:VD3 Suf, SEX:M, OCC 2, time 24): 1.88 ng/mL
